The assay addresses indoleamine 2,3-dioxygenase 1 (IDO1) (Homo sapiens, UniProt P14902). It counts as biochemical.

indoleamine 2,3-dioxygenase 1 (IDO1), sequence (P14902 whole entry): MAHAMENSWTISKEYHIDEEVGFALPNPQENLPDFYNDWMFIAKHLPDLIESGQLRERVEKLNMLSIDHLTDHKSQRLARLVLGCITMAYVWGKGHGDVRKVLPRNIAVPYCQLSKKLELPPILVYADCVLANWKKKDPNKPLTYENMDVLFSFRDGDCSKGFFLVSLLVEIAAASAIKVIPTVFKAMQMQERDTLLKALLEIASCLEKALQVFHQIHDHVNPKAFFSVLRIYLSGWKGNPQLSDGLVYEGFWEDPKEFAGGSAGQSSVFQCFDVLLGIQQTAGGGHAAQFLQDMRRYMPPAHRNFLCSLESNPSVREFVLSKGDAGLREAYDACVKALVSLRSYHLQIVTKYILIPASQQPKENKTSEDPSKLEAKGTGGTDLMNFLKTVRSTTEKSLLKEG

What is called Ki is a dissociation constant, usually derived from enzyme kinetics or from competition with a known ligand. In turn, `CC1(C)CCC2=C(O1)c1ccccc1C(=O)C2=O` [β-lapachone, 3,4-dihydro-2,2-dimethyl-2H-naphthol[1,2-b]pyran-5,6-dione] had a Ki of 450 nM.

For the origin of these results see paper PMC3762611 (International Journal of Tryptophan Research : IJTR, 2013).
